Consider 57 molecules from publication PMC12040169 (PLOS Biology, 2025).

The data set in a line: in vitro. The note with it: human, hela cells, % viability.

As to `C/C(=N\Nc1cccc2cccnc12)C(C)(C)C` [CBK021957], the viability at 28.5 h, 10 µM is 113%.
Turning to `O=[N+]([O-])c1ccc(F)cc1NS(=O)(=O)c1ccccc1` [CBK000674], the viability at 28.5 h, 10 µM is 93.1%.
Turning to `COc1ccccc1N1C(=O)NC(=O)/C(=C/NCCCO)C1=O` [CBK261618], the viability at 28.5 h, 10 µM (bulk resorufin, single well) amounted to 87.8%.
Regarding `CCn1cc(C(=O)N2CCCC2c2nc3ccccc3[nH]2)cn1` (stereo not drawn) [CBK283776], the viability at 28.5 h, 10 µM was 109%.
On the same count and under the same terms, under `Cn1c(C(=O)OCC(=O)NC(C)(C)C)cc2occc21` [CBK284015] stands 109%; under `CCCCSc1nnc(-c2cc3c(C(F)(F)F)nn(C)c3s2)n1C` [CBK019526], 97.5%.
Take `COc1ccccc1C(=O)N1CCC(c2nc(C)n3ccccc23)C1` (stereo not drawn) [CBK282221]: the viability at 28.5 h, 10 µM was found to be 88.4%.
With `CCn1c(SCC(=O)Nc2cc(C)ccc2F)nnc1-c1ccccc1O` [CBK269532], the viability at 28.5 h, 10 µM stood at 91.4%.
Same read-out and setting: under `Cc1cccn2cc(CC(=O)OCC(=O)NC(C)(C)C)nc12` [CBK304966] stands 110%; under `Cc1c(-c2cc(C(=O)NC(C)C3CC4CCC3C4)no2)cnn1C` (stereo not drawn) [CBK281653], 91.3%.
Same read-out and setting: under `Cc1nnc(Sc2nc3ccccc3nc2NC(C)C)s1` [CBK093731] stands 90.6%; under `c1ccc2c(c1)OCC(COc1cncc(OC3CCN(CC4CCCCC4)C3)n1)O2` (stereo not drawn) [CBK084387], 109%; under `COc1cc(C=Cc2nc3cc(Cl)ccc3s2)ccc1OCC(=O)O` [CBK297886], 96.4%.
Still for that read-out and setting: under `CC(C)(C)c1ccc(-c2cnc(N)c3ncccc23)cc1` [CBK067589] stands 99.2%; under `CC(C)N(Cc1nc(-c2ccc(Cl)cc2)no1)S(=O)(=O)c1cccc([N+](=O)[O-])c1` [CBK267050], 83.6%; under `Cc1cc(C)nc(SCC(=O)Nc2cccc(C(=O)O)c2)n1` [CBK263214], 101%.
In the case of `Clc1nccnc1NCCOc1ccccc1` [CBK113564], the viability at 28.5 h, 10 µM was 93.8%.
Still for that read-out and setting: under `CCNC(=O)N1CC2(CCN(CC(=O)c3ccsc3)CC2)c2ccccc21` [CBK144601T] stands 88.6%.
Still for that read-out and setting: under `Cc1cccn2c(CN3CCCC(O)C3)c(C(=O)N3CCOCC3)nc12` (stereo not drawn) [CBK306545] stands 72.5%; under `O=C(Nc1ccnn1Cc1ccccc1)C1CC(c2cccc(F)c2)=NO1` (stereo not drawn) [CBK297772], 112%.
For the molecule `Cc1c(NC(=O)CCCC(=O)O)cccc1C(=O)O` [CBK265525], the viability at 28.5 h, 10 µM is 95%.
In the case of `CC(C)(C)OC(=O)N1CCC(C2OCc3cc(C(=O)N4CCNC(=O)C4)ccc3O2)CC1` (stereo not drawn) [CBK173277], the viability at 28.5 h, 10 µM is 105%.
For the molecule `COc1cccc(CN2CCCC3(C2)c2[nH]c4ccccc4c2CCN3C(C)=O)c1` (stereo not drawn) [CBK039634], the viability at 28.5 h, 10 µM turned out to be 86.4%.
Still for that read-out and setting: as for `CN(C)c1cccc(-c2nc(-c3ccc(C#N)cc3)cnc2N)c1` [CBK064049], the figure is 91.5%.
For the molecule `O=C(NC1CC2CCC(C1)N2Cc1ccccc1)c1cccc(Cl)c1` (stereo not drawn) [CBK116291], the viability at 28.5 h, 10 µM stood at 95.4%.
The same measure, in the same setting: under `CNS(=O)(=O)c1cccc(C(C)NC(=O)N2CCC(COC)CC2)c1` (stereo not drawn) [CBK304087] stands 90.4%; under `CNC(=O)C1(Cc2ccc(-c3cccs3)cc2)CCN(C(=O)C2CCCCC2)CC1` [CBK285793], 88%.
For the molecule `CCN1CC2(CCNCC2)c2ccccc21` [CBK116520], the viability at 28.5 h, 10 µM was found to be 90.4%.
The same measure, in the same setting: as for `CN1CCN(c2nccnc2OCC2COc3ccccc3O2)CC1` (stereo not drawn) [CBK003899C], the figure is 96.7%.
On the same count and under the same terms, under `CCNc1cc(N2CCN(C)CC2)ccc1NS(=O)(=O)c1ccc(F)cc1F` [CBK001496C] stands 95.8%; under `COc1ccc(-c2cnc3[nH]c(=O)n([C@H](C)c4ccccc4)c3n2)c(OC)c1OC` [CBK064236], 94.7%.
On to `CCc1nnc(NS(=O)(=O)c2ccc(Nc3ccc([N+](=O)[O-])c4nonc34)cc2)s1` [CBK261442], for which the viability at 28.5 h, 10 µM was found to be 92.3%.
The same measure, in the same setting: as for `Cc1ccc2c(CSc3nc(N)cc(N)n3)cc(=O)oc2c1C` [CBK297519], the figure is 87.7%; as for `O=C(Cn1cccc(C(=O)NC2CCCC2)c1=O)NCC1(c2ccccc2)CCCC1` [CBK285975], 96.2%.
On the same count and under the same terms, under `COc1cc(OC)cc(-c2c(C)ncnc2OC)c1` [CBK306765] stands 91.4%; under `C=CCOc1ccc(Cl)cc1CNc1cccc(C(=O)O)c1` [CBK078460], 96.6%; under `CN(CC1CCCOC1)C(=O)c1ncsc1Nc1ccccc1` (stereo not drawn) [CBK304250], 94.4%.
Same read-out and setting: under `O=S(=O)(c1ccc(Cl)cc1)N1CCN(CC(O)Cn2c3ccccc3c3ccccc32)CC1` (stereo not drawn) [CBK264383] stands 105%; under `O=C(Nc1ccc(S(=O)(=O)Nc2nccs2)cc1)c1cc(-c2cccnc2)nc2ccc(Cl)cc12` [CBK267721], 105%; under `COCC(=O)N[C@H]1C[C@@H](Cc2cc(C(C)(C)C)on2)C1(C)C` [CBK289244], 106%.
Turning to `OCCN1CCN(c2ccc(/C=C/c3ccccc3)cn2)CC1` [CBK036849], the viability at 28.5 h, 10 µM stood at 89.2%.
On the same count and under the same terms, as for `O=C(Nc1cccc(Cn2cccn2)c1)c1csc2ccccc12` [CBK268123], the figure is 93.2%; as for `Cc1ccc(S(=O)(=O)c2cc3c(=O)n4ccccc4nc3n(CCCN3CCOCC3)c2=N)cc1` [CBK265590], 101%; as for `N=c1n(CCN2CCCCC2)c2ccccc2n1CC(=O)c1cccc([N+](=O)[O-])c1` [CBK263481B], 103%.
On the same count and under the same terms, under `COc1cc2c(cc1OC)CN(C(=O)c1cncnc1)CC2` [CBK122748] stands 105%; under `CCCCC1=NN2C(=N)/C(=C/c3cn(Cc4ccc([N+](=O)[O-])cc4)c4ccccc34)C(=O)N=C2S1` [CBK264320], 106%; under `FC(F)(F)c1nc2ccccc2nc1OCCCc1ccncc1` [CBK115804], 85.1%.
For `CCN(CC)C(=O)C1CCCN(Cc2cccc(Oc3ccccc3)c2)C1` (stereo not drawn) [CBK261581], the viability at 28.5 h, 10 µM was 92.6%.
The same measure, in the same setting: under `O=C(COc1ccc2ccccc2c1)N[C@@H](C(=O)O)c1ccc(O)cc1` [CBK286571] stands 88.8%.
Still for that read-out and setting: under `O=C(NCCN1CCOCC1)C1CC2CCC1C2` (stereo not drawn) [CBK026764] stands 115%; under `CCN1CCN(C(=O)c2ccccc2N(Cc2ccccc2)S(=O)(=O)c2ccc(C)cc2)CC1` [CBK266827], 91.6%.
On the same count and under the same terms, under `CC(=O)N1c2ccccc2C(C)(c2ccc(Br)cc2)CC1(C)C` (stereo not drawn) [CBK026461] stands 95.8%; under `O=C(NCCNc1cnccn1)c1cc(F)cc(Br)c1` [CBK304554], 99.6%; under `O=C(NCCc1ccc(S(=O)(=O)NC(=O)NC2CCCCC2)cc1)NC1CCCCC1` [CBK011926], 88.4%.
Regarding `CNc1nc(N)nc(OCC(F)(F)F)n1` [CBK028082], the viability at 28.5 h, 10 µM stood at 89.4%.
Regarding `C#CCNC(=O)C1CCCN(c2nc3ccccc3n2CC)C1` (stereo not drawn) [CBK282433], the viability at 28.5 h, 10 µM was found to be 90.5%.
As for `COc1ccc(C(=O)N2CCC3(CCCN(CCc4c[nH]c5ccccc45)C3)C2)cc1OC` (stereo not drawn) [CBK137143], the viability at 28.5 h, 10 µM turned out to be 89.9%.

By viability is commonly meant a read-out of living cells in per cent, often relative to untreated cells.
